Measured values as given in ChEMBL document CHEMBL6078630, “Design, synthesis, and bioactivity investigation of novel cyclic lipopeptide antibiotics targeting top-priority multidrug-resistant gram-negative bacteria” (Eur J Med Chem, 2024).
Converted amounts (≈) assume the structure as drawn. Bridge positions count the residues as written; N and C are the ends. Square brackets hold non-standard residues; d marks the D form. Peptide text beside a SMILES is read from it. * marks the point of attachment. Heptanoyl(6-Me) = CC(C)CCCCC(=O)*; dNle = CCCC[C@@H](N)C(=O)O; X1 = CC[C@H](C)CCCCC(=O)*; dDab = NCC[C@@H](N)C(=O)O; Octanoyl = CCCCCCCC(=O)*; Orn = NCCC[C@H](N)C(=O)O; Dab = NCC[C@H](N)C(=O)O

Assays:
[1] = system: Escherichia coli; test: Antibacterial activity against carbapenem-resistant Escherichia coli ATCC BAA-2340 assessed as inhibition of bacterial growth incubated for 16 to 20 hrs by CLSI protocol based broth microdilution method; type: functional; conditions: time 16-20 hrs
[2] = system: Pseudomonas aeruginosa; test: Antibacterial activity against Pseudomonas aeruginosa ATCC 27853 assessed as inhibition of bacterial growth incubated for 16 to 20 hrs by CLSI protocol based broth microdilution method; type: functional; conditions: time 16-20 hrs
[3] = system: Klebsiella pneumoniae; test: Antibacterial activity against carbapenem-resistant Klebsiella pneumoniae ATCC BAA-1705 assessed as inhibition of bacterial growth incubated for 16 to 20 hrs by CLSI protocol based broth microdilution method; type: functional; conditions: time 16-20 hrs
[4] = system: Pseudomonas aeruginosa; test: Antibacterial activity against carbapenem-resistant Pseudomonas aeruginosa clinical isolate 19-3 assessed as inhibition of bacterial growth incubated for 16 to 20 hrs by CLSI protocol based broth microdilution method; type: functional; conditions: time 16-20 hrs
[5] = system: Escherichia coli; test: Antibacterial activity against Escherichia coli ATCC BAA-2523 assessed as inhibition of bacterial growth incubated for 16 to 20 hrs by CLSI protocol based broth microdilution method; type: functional; conditions: time 16-20 hrs
[6] = system: Klebsiella pneumoniae; test: Antibacterial activity against carbapenem-resistant Klebsiella pneumoniae clinical isolate KPN+19-15 assessed as inhibition of bacterial growth incubated for 16 to 20 hrs by CLSI protocol based broth microdilution method; type: functional; conditions: time 16-20 hrs
[7] = system: Acinetobacter baumannii; test: Antibacterial activity against Acinetobacter baumannii NCTC 13304 (OXA-27) assessed as inhibition of bacterial growth incubated for 16 to 20 hrs by CLSI protocol based broth microdilution method; type: functional; conditions: time 16-20 hrs
[8] = system: Acinetobacter baumannii; test: Antibacterial activity against carbapenem-sensitive Acinetobacter baumannii clinical isolate 19-1 assessed as inhibition of bacterial growth incubated for 16 to 20 hrs by CLSI protocol based broth microdilution method; type: functional; conditions: time 16-20 hrs
[9] = Renal cytotoxicity against HK-2 cells incubated for 72 hrs by CCK8 assay; type: toxicity, cell-based; conditions: human

SMILES	MIC [1] [µg/mL]	MIC [2] [µg/mL]	MIC [3] [µg/mL]	MIC [4] [µg/mL]	MIC [5] [µg/mL]	MIC [6] [µg/mL]	MIC [7] [µg/mL]	MIC [8] [µg/mL]	IC50 at 72 h [9] [µg/mL]
CCCCCCCC(=O)N[C@@H](CCN)C(=O)N[C@H](C(=O)N[C@@H](CCN)C(=O)N[C@H]1CCNC(=O)[C@H]([C@@H](C)O)NC(=O)[C@H](CCN)NC(=O)[C@H](CCN)NC(=O)[C@H]([C@@H](C)O)NC(=O)[C@@H](Cc2ccccc2)NC(=O)[C@H](CCN)NC1=O)[C@@H](C)O (Octanoyl-[Dab]T[Dab][Dab][Dab][dF]T[Dab][Dab]T; lactam 4-C)	0.06 (≈ 0.051 µM)	0.5 (≈ 0.425 µM)	0.5 (≈ 0.425 µM)	0.5 (≈ 0.425 µM)	≤ 0.03	≤ 0.03	0.25 (≈ 0.212 µM)	0.5 (≈ 0.425 µM)	–
CCCCCCCC(=O)N[C@@H](CCN)C(=O)N[C@H](C(=O)N[C@@H](CCN)C(=O)N[C@H]1CCNC(=O)[C@H]([C@@H](C)O)NC(=O)[C@H](CCN)NC(=O)[C@H](CCN)NC(=O)[C@H]([C@@H](C)O)NC(=O)[C@@H](CC(C)C)NC(=O)[C@H](CCN)NC1=O)[C@@H](C)O (Octanoyl-[Dab]T[Dab][Dab][Dab][dL]T[Dab][Dab]T; lactam 4-C) [listing 1 of 2 here]	–	–	–	–	–	–	–	–	> 500
CCCCCCCC(=O)N[C@@H](CCN)C(=O)N[C@H](C(=O)N[C@@H](CCN)C(=O)N[C@H]1CCNC(=O)[C@H]([C@@H](C)O)NC(=O)[C@H](CCN)NC(=O)[C@H](CCN)NC(=O)[C@H]([C@@H](C)O)NC(=O)[C@@H](CC(C)C)NC(=O)[C@H](CCN)NC1=O)[C@@H](C)O (Octanoyl-[Dab]T[Dab][Dab][Dab][dL]T[Dab][Dab]T; lactam 4-C) [listing 2 of 2 here]	0.06 (≈ 0.0525 µM)	1 (≈ 0.875 µM)	2 (≈ 1.75 µM)	0.5 (≈ 0.437 µM)	0.25 (≈ 0.219 µM)	0.25 (≈ 0.219 µM)	1 (≈ 0.875 µM)	1 (≈ 0.875 µM)	–
CCCCCCCC(=O)N[C@@H](CCN)C(=O)N[C@H](C(=O)N[C@@H](CCN)C(=O)N[C@H]1CCNC(=O)[C@H]([C@@H](C)O)NC(=O)[C@H](CCN)NC(=O)[C@H](CCN)NC(=O)[C@H]([C@@H](C)O)NC(=O)[C@@H](CCCC)NC(=O)[C@H](CCN)NC1=O)[C@@H](C)O (Octanoyl-[Dab]T[Dab][Dab][Dab][dNle]T[Dab][Dab]T; lactam 4-C) [listing 1 of 2 here]	–	–	–	–	–	–	–	–	> 500
CCCCCCCC(=O)N[C@@H](CCN)C(=O)N[C@H](C(=O)N[C@@H](CCN)C(=O)N[C@H]1CCNC(=O)[C@H]([C@@H](C)O)NC(=O)[C@H](CCN)NC(=O)[C@H](CCN)NC(=O)[C@H]([C@@H](C)O)NC(=O)[C@@H](CCCC)NC(=O)[C@H](CCN)NC1=O)[C@@H](C)O (Octanoyl-[Dab]T[Dab][Dab][Dab][dNle]T[Dab][Dab]T; lactam 4-C) [listing 2 of 2 here]	0.125 (≈ 0.109 µM)	1 (≈ 0.875 µM)	2 (≈ 1.75 µM)	1 (≈ 0.875 µM)	0.125 (≈ 0.109 µM)	0.125 (≈ 0.109 µM)	1 (≈ 0.875 µM)	1 (≈ 0.875 µM)	–
CC[C@H](C)CCCCC(=O)N[C@@H](CCN)C(=O)N[C@H](C(=O)N[C@H](CCN)C(=O)N[C@H]1CCNC(=O)[C@H]([C@@H](C)O)NC(=O)[C@H](CCN)NC(=O)[C@H](CCN)NC(=O)[C@H]([C@@H](C)O)NC(=O)[C@@H](Cc2ccccc2)NC(=O)[C@H](CCN)NC1=O)[C@@H](C)O (X1-[Dab]T[dDab][Dab][Dab][dF]T[Dab][Dab]T; lactam 4-C)	≤ 0.03	1 (≈ 0.839 µM)	≤ 0.03	1 (≈ 0.839 µM)	≤ 0.03	≤ 0.03	≤ 0.03	≤ 0.03	371 (≈ 311 µM)
CC(C)CCCCC(=O)N[C@@H](CCN)C(=O)N[C@H](C(=O)N[C@@H](CCN)C(=O)N[C@H]1CCNC(=O)[C@H]([C@@H](C)O)NC(=O)[C@H](CCN)NC(=O)[C@H](CCN)NC(=O)[C@H]([C@@H](C)O)NC(=O)[C@@H](Cc2ccccc2)NC(=O)[C@H](CCN)NC1=O)[C@@H](C)O ({Heptanoyl(6-Me)}-[Dab]T[Dab][Dab][Dab][dF]T[Dab][Dab]T; lactam 4-C) [listing 1 of 2 here]	–	–	–	–	–	–	–	–	> 500
CC(C)CCCCC(=O)N[C@@H](CCN)C(=O)N[C@H](C(=O)N[C@@H](CCN)C(=O)N[C@H]1CCNC(=O)[C@H]([C@@H](C)O)NC(=O)[C@H](CCN)NC(=O)[C@H](CCN)NC(=O)[C@H]([C@@H](C)O)NC(=O)[C@@H](Cc2ccccc2)NC(=O)[C@H](CCN)NC1=O)[C@@H](C)O ({Heptanoyl(6-Me)}-[Dab]T[Dab][Dab][Dab][dF]T[Dab][Dab]T; lactam 4-C) [listing 2 of 2 here]	≤ 0.03	1 (≈ 0.849 µM)	0.5 (≈ 0.425 µM)	1 (≈ 0.849 µM)	0.06 (≈ 0.051 µM)	≤ 0.03	0.25 (≈ 0.212 µM)	0.5 (≈ 0.425 µM)	–
CC(C)CCCCC(=O)N[C@@H](CCN)C(=O)N[C@H](C(=O)N[C@@H](CCCN)C(=O)N[C@H]1CCNC(=O)[C@H]([C@@H](C)O)NC(=O)[C@H](CCN)NC(=O)[C@H](CCN)NC(=O)[C@H]([C@@H](C)O)NC(=O)[C@@H](Cc2ccccc2)NC(=O)[C@H](CCN)NC1=O)[C@@H](C)O ({Heptanoyl(6-Me)}-[Dab]T[Orn][Dab][Dab][dF]T[Dab][Dab]T; lactam 4-C)	≤ 0.03	≤ 0.03	≤ 0.03	0.25 (≈ 0.21 µM)	≤ 0.03	≤ 0.03	0.06 (≈ 0.0504 µM)	0.125 (≈ 0.105 µM)	> 500
